Results taken from patent US11149057B2, “Neuroactive steroids, compositions, and uses thereof” (Sage Therapeutics, Inc., priority 2014, dated 2021).
pIC50: −log10 of the molar value.

Legend:
[1] = target: [35S]-TBPS binding, rat brain cortical membranes; assay: Steroid inhibition of [35S]-TBPS binding; conditions: 3 nM [35S]-TBPS, in the presence of 5 μM GABA
Protocol: [35S]-Butylbicyclophosphorothionate (TBPS) binding assays using rat brain cortical membranes in the presence of 5 μM GABA has been described (Gee et al, J. Pharmacol. Exp. Ther. 1987, 241, 346-353; Hawkinson et al, Mol. Pharmacol. 1994, 46, 977-985; Lewin, A. H et al., Mol. Pharmacol. 1989, 35, 189-194).
Briefly, cortices are rapidly removed following decapitation of carbon dioxide-anesthetized Sprague-Dawley rats (200-250 g). The cortices are homogenized in 10 volumes of ice-cold 0.32 M sucrose using a glass/teflon homogenizer and centrifuged at 1500×g for 10 min at 4° C. The resultant supernatants are centrifuged at 10,000×g for 20 min at 4° C. to obtain the P2 pellets. The P2 pellets are resuspended in 200 mM NaCl/50 mM Na—K phosphate pH 7.4 buffer and centrifuged at 10,000×g for 10 min at 4° C. This washing procedure is repeated twice and the pellets are resuspended in 10 volumes of buffer. Aliquots (100 μL) of the membrane suspensions are incubated with 3 nM [^35S]-TBPS and 5 μL aliquots of test drug dissolved in dimethyl sulfoxide (DMSO) (final 0.5%) in the presence of 5 μM GABA. The incubation is brought to a final volume of 1.0 mL with buffer. Nonspecific binding is determined in the presence of 2 μM unlabeled TBPS and ranged from 15 to 25%. […] Filter bound radioactivity is measured by liquid scintillation spectrometry. […]

[2] = target: T1, α1β2γ2 GABAA receptors (Homo sapiens, UniProt P14867+P47870); assay: Patch clamp electrophysiology (QPatch) of recombinant α1β2γ2 GABAA receptors in LTK cells; format: cell-based; conditions: 10 μM test article, GABA EC20 = 2 μM, read-out: GABA (α1β2γ2) Qpatch in Ltk, % efficacy at 10 μM
T1 construct: expressed in transfected cells

[3] = target: T2, α4β3δ GABAA receptors (Homo sapiens, UniProt P28472+P48169); assay: Manual patch clamp electrophysiology of recombinant α4β3δ GABAA receptors in CHO cells; format: cell-based; conditions: 10 μM test article, GABA EC20 = 2 μM, read-out: GABA (α4β3δ) Manual patch in CHO, % efficacy at 10 μM
T2 construct: expressed in transfected cells; host or cells: CHO cells (transient transfection, Lipofectamine)
T2 sequence (P48169 36-554): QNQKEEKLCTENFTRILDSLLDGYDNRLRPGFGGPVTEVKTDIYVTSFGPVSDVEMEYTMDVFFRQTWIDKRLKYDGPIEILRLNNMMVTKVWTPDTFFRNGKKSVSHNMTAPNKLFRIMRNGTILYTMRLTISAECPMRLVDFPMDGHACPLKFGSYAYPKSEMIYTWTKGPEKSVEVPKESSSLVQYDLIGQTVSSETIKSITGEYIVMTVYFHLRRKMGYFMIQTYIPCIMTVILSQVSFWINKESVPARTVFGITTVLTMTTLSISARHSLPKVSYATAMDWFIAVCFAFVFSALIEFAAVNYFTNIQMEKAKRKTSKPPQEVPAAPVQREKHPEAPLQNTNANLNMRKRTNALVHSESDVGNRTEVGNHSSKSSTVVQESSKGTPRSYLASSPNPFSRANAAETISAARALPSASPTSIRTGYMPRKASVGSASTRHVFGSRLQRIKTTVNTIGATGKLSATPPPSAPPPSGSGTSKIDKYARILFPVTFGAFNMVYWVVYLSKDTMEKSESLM
T2 sequence (P28472 26-473): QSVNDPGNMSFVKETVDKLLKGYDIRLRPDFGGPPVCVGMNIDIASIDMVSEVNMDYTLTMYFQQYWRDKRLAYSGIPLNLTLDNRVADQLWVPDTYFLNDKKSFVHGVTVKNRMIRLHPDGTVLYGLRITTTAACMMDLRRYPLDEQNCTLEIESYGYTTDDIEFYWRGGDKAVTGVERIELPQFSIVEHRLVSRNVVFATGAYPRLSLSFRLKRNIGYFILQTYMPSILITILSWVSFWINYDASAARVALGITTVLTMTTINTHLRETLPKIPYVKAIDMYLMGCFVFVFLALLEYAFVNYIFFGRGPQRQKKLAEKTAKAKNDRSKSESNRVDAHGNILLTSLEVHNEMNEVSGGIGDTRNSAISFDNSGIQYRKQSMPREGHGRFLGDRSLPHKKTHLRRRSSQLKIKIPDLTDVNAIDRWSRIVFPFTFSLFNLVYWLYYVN
T2 sequence (O14764 17-452 partner limits assumed): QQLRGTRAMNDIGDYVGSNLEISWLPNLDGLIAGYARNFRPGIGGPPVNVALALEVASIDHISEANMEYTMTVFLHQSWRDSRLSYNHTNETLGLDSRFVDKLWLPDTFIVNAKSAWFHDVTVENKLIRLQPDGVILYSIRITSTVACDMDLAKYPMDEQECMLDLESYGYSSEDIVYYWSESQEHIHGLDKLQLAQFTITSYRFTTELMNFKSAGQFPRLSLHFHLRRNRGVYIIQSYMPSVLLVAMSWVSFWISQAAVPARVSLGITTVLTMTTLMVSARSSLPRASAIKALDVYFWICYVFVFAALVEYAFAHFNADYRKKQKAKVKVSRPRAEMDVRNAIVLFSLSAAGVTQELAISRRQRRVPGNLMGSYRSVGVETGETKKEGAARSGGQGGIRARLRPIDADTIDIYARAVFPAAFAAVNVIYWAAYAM

T1 sequence (P14867 28-456): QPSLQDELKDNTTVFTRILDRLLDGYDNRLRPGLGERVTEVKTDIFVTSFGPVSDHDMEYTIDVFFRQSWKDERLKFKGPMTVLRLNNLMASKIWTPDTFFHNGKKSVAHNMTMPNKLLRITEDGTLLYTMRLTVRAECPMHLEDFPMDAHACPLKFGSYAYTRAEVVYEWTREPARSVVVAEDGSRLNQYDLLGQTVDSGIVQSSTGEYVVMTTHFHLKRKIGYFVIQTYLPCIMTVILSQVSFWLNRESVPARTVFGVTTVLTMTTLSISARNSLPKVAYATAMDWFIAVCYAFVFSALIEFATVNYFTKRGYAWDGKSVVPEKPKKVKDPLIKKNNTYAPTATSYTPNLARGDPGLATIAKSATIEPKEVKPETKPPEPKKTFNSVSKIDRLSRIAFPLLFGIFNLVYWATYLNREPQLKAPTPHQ
T1 sequence (P47870 25-512 limits assumed): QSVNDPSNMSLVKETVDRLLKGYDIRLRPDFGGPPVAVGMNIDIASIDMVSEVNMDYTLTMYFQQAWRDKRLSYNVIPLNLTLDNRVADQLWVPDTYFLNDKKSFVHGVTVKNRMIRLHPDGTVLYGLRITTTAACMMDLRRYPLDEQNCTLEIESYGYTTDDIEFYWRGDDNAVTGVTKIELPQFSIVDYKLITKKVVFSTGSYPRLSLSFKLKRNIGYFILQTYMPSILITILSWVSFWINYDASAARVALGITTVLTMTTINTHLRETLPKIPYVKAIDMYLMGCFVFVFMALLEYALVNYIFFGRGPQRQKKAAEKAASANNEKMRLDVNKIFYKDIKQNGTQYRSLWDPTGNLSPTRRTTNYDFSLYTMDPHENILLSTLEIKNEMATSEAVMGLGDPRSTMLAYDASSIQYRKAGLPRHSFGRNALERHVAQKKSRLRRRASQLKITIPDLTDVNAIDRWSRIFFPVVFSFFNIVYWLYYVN
T1 sequence (P18507 40-475 partner): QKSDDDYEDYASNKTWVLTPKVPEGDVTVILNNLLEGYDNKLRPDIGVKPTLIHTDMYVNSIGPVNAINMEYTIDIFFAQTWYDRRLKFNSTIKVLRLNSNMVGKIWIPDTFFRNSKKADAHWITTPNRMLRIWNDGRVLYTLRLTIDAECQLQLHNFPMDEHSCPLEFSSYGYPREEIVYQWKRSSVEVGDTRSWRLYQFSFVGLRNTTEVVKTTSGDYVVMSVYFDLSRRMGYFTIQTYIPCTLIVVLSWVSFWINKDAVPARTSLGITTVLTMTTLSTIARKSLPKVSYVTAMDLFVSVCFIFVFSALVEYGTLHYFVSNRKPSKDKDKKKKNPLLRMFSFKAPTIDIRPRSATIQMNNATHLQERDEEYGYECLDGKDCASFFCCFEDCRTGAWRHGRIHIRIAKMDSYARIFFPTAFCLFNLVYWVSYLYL

SMILES: CC(=O)[C@H]1CC[C@H]2[C@@H]3CC[C@@H]4C[C@](C)(O)CC[C@]4(COC(C)C)[C@H]3CC[C@]12C [Compound 5]
- pIC50 [1]: > 8.00
- Emax at 10 µM [2]: > 500%
- Emax at 10 µM [3]: > 500%
